Assay results reported in patent US5494897A, “Endothelin antagonistic peptide” (Banyu Pharmaceutical Co., Ltd., priority 1993, dated 1996).
Numbered stars: 1 amine (or outer) side, 2 acyl side, 3 side chain; on linkers, the order of the positions; unused ones are H or OH. Square brackets hold non-standard residues; d marks the D form. Peptide text beside a SMILES is read from it. X1 = N#Cc1[nH]c2ccccc2c1C[C@@H](N[*:1])C(=O)[*:2]; dPen = CC(C)(S)[C@@H](N)C(=O)O

How the values were obtained:
ETB receptor = target: T1, ETB receptor (Sus scrofa, UniProt P35463); assay: Endothelin binding inhibition test (125I-endothelin-1, porcine cerebellum membrane); conditions: 1.1 μM test compound; porcine cerebellum membrane (ETB receptors)
T1 construct: ETB receptors of porcine cerebellum membrane suspension used in the present experiments; from tissue; host or cells: porcine cerebellum membrane preparation
T1 sequence (P35463 27-443): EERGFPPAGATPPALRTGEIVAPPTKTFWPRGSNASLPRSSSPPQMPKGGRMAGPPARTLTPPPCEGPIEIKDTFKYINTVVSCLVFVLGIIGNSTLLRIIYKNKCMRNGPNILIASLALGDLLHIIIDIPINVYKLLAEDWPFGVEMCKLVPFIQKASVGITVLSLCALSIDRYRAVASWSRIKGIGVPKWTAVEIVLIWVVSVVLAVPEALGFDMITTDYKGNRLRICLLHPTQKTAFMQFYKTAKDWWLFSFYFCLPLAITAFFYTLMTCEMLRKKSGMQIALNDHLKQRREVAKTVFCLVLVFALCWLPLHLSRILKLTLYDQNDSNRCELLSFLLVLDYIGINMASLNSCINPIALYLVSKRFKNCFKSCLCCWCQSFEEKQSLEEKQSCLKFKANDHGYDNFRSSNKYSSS
Method: The cerebellum of porcine was homogenized in a buffer solution of 10 mM MOPS, pH 7.4, at 4° C. by a polytron. To the homogenate, sucrose was added to a concentration of 20%, and the mixture was centrifuged at 1,000×g for 15 minutes, and the supernatant was further centrifuged at 10,000×g for 15 minutes. The supernatant thereof was further centrifuged at 90,000×g for 40 minutes. The membrane precipitate thereby obtained was suspended in a buffer solution of 5 mM HEPES/Tris, pH 7.4, at a concentration of 3.3 mg/ml. Then, 16 μl of this membrane suspension was added to 340 μl of 50 mM tris/HCl buffer, pH 7.4, containing […] calcium chloride, 10 μM magnesium chloride, 0.1 mM PMSF, 1 μM pepstatin A, 2 μM leupeptin, 1 mM 1,10-phenanthroline and 0.1% bovine serum albumin. […] These mixtures were incubated at 25° C. for 4 hours, then subjected to filtration on a glass filter GF/C and then washed with 5 mM HEPES/Tris, pH 7.4, containing 0.3% bovine serum albumin. […] [formula] Each test was performed in triplicate.
The test compounds are indicated by compound Nos.

[1] = system: human Girardi heart cells; assay: Inhibition of endothelin-1-induced increase in intracellular calcium concentration (fura-2); type: cell-based; conditions: for inhibition of ET-1-induced increase in intracellular calcium concentration: 1.1 μM compound given 5 minutes before 100 nM ET-1, fura-2-loaded cells; for effect on the intracellular calcium concentration itself: compound alone, fura-2-loaded human Girardi heart cells
Method: Inhibitory activities of test compounds against endothelin-1-induced increase in intracellular calcium concentration of human Girardi heart cells
Antagonism of test compounds to endothelin-1-induced increase in intracellular calcium concentration was evaluated in human Girardi heart cells (Dainippon Seiyaku Co., Ltd.).
Cultured human Girardi heart cells in Flask were harvested using 0.25% trypsin and 0.02% EDTA. The collected cells were washed with Dulbecco's modification eagle medium containing 20 mM Hepes and 0.3% BSA (pH 7.4, D medium). Then the cells were suspended in D medium and incubated with 2 μM of fura-2 acetoxymethyl ester at 37° C. for 30 minutes. The cell suspensions were diluted with a 10-fold volume of D medium and incubated for 20 minutes. The fura-2-loaded cells were collected by centrifugation and resuspended in Krebs-Henseleit Hepes buffer (pH 7.4). The resultant suspension in a cuvette was continuously stirred at 37° C. throughout the following measurement process. Each test compound or vehicle was given 5 minutes before the addition of 100 nM ET-1, and fluorescence intensity at emission wavelength of 510 nm and excitation wavelength of 340 and 380 nm was monitored with a JASCO CAF-100 spectrofluorometer (Japan), and [Ca^2+ ]i values were calculated according to the reported method (G. Grynkiewicz et al., J. Biol. Chem. 260, 3440-3450 (1985)).

ETA receptors = target: T2, ETA receptors (Sus scrofa, UniProt Q29010); assay: 125I-ET-1 binding inhibition to porcine aorta membrane suspension; conditions: 1.1 μM; porcine aorta membrane suspension containing a large amount of ETA receptors
T2 construct: porcine aorta membrane suspension containing a large amount of ETA receptors; from tissue; host or cells: porcine aorta membrane suspension
T2 sequence (Q29010 21-427): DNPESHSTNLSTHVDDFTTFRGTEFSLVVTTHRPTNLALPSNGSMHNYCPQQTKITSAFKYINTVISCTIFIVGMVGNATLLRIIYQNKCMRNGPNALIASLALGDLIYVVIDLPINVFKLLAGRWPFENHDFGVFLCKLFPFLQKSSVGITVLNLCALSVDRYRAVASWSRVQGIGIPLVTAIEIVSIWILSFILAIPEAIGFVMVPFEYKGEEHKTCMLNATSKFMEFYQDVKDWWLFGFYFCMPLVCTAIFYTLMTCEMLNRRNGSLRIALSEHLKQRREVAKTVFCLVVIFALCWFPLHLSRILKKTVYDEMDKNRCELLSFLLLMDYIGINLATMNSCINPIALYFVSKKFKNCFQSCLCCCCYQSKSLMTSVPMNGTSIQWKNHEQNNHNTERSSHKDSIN

Row | inhibition at 1.1 µM (ETB receptor) [%] | Molecule | other results
1 | 96 | CCCC[C@@H](NC(=O)[C@@H](Cc1c(C#N)[nH]c2ccccc12)NC(=O)[C@@H](NC(=O)N1C(C)CCCC1C)C(C)C)C(=O)O (stereo partly drawn) [Compound 1] | inhibition of ET-1-induced increase in intracellular calcium concentration [1]: 94%; effect on the intracellular calcium concentration itself [1]: no effect
2 | 99 | CCCC[C@@H](NC(=O)[C@@H](Cc1c(C#N)[nH]c2ccccc12)NC(=O)[C@H](CC(C)C)NC(=O)N1C(C)CCCC1C)C(=O)O (stereo partly drawn) [Compound 2] | 
3 | 99 | CCCC[C@@H](NC(=O)[C@@H](Cc1c(C#N)[nH]c2ccccc12)NC(=O)[C@H](CC(C)(C)C)NC(=O)N1C(C)CCCC1C)C(=O)OC (stereo partly drawn) [Compound 3] | 
4 | 100 | CCCC[C@@H](NC(=O)[C@@H](Cc1c(C#N)[nH]c2ccccc12)NC(=O)[C@H](CC(C)(C)C)NC(=O)N1C(C)CCCC1C)C(=O)O (stereo partly drawn) [Compound 4] | 
5 | 96 | CCC[C@@H](NC(=O)[C@@H](Cc1c(C#N)[nH]c2ccccc12)NC(=O)[C@@H](NC(=O)N1C(C)CCCC1C)C1CCCC1)C(=O)OC (stereo partly drawn) [Compound 7] | 
6 | 96 | CCC[C@@H](NC(=O)[C@@H](Cc1c(C#N)[nH]c2ccccc12)NC(=O)[C@@H](NC(=O)N1C(C)CCCC1C)C1CCCC1)C(=O)O (stereo partly drawn) [Compound 8] | 
7 | 100 | CCC[C@@H](NC(=O)[C@@H](Cc1c(C#N)[nH]c2ccccc12)NC(=O)[C@@H](NC(=O)N1C(C)CCCC1C)C1CCCC1)C(=O)NC (stereo partly drawn) [Compound 9] | 
8 | 65 | COC(=O)C[C@H]1NC(=O)[C@@H](Cc2c(C#N)[nH]c3ccccc23)NC(=O)[C@H](CC(C)C)NC(=O)[C@@H](C(C)(C)SC)NC(=O)[C@@H]2CCCN2C1=O [Compound 10] (cyclo(L[X1][dD](OMe)P[dPen](Me))) | 
9 | 97 | CSC(C)(C)[C@H]1NC(=O)[C@@H]2CCCN2C(=O)[C@@H](CC(=O)O)NC(=O)[C@@H](Cc2c(C#N)[nH]c3ccccc23)NC(=O)[C@H](CC(C)C)NC1=O [Compound 11] (cyclo(L[X1][dD]P[dPen](Me))) | inhibition of ET-1-induced increase in intracellular calcium concentration [1]: 69%; effect on the intracellular calcium concentration itself [1]: no effect
10 | 78 | CC(C)C[C@@H]1NC(=O)[C@@H](C(C)C)NC(=O)[C@@H]2CCCN2C(=O)[C@@H](CC(=O)O)NC(=O)[C@@H](Cc2c(C#N)[nH]c3ccccc23)NC1=O [Compound 12] (cyclo(L[X1][dD]P[dV])) | 
11 |  | cyclo(-DTrp-DAsp-Pro-DThg-Leu-) [compound 6, reference compound] | 125I-endothelin-1 binding inhibition (ETB receptor): 11%; 125I-ET-1 binding inhibition (ETA receptors): 82%
12 |  | cyclo(-DTrp-DCys(O3 Na)-Pro-DVal-Leu-) [compound 5, reference compound] | 125I-endothelin-1 binding inhibition (ETB receptor): 0.6%; 125I-ET-1 binding inhibition (ETA receptors): 85%
